Experimental data from US20220152100A1, “METHODS FOR CONTROLLED ACTIVATION OR ELIMINATION OF THERAPEUTIC CELLS” (Bellicum Pharmaceuticals, Inc., priority 2014, published 2022).
Several values for one entry are separate records, joined by “and”; a condition that tells them apart may be missing. Equal values may be shown once.

What was measured:
human CD3+/GFP+ T cells = assay: SCID mouse-human xenograft: elimination of iCasp9M-transduced CTLs in tumors; assay type: in vivo, NOD/SCID mice; settings: single dose 50 μg intraperitoneally, versus carrier, 3 days after
Experimental: Non-obese diabetic severe combined immunodeficient (NOD/SCID) mice, 6 to 8 weeks of age, were irradiated (250 rad) and injected subcutaneously in the right flank with 10×10^6 to 15×10^6 LCLs resuspended in Matrigel (BD Bioscience). Two weeks later mice bearing tumors that were approximately 0.5 cm in diameter were injected into the tail vein with a 1:1 mixture of nontransduced and iCasp9.I.GFPhigh-transduced EBV CTLs (total 15×10^6). At 4 to 6 hours prior and 3 days after CTL infusion, mice were injected intraperitoneally with recombinant hIL-2 (2000 U; Proleukin; Chiron). […] By FACS analysis, the number of GFP+ cells within the gated CD3^+ population was evaluated. […]
The function of iCasp9M also was evaluated in transduced EBV-CTLs in vivo. […] Three days after CID/carrier administration, tumors were analyzed for human CD3^+/GFP^+ cells. […]
The function of iCasp9M in vivo, was assayed. […] On day 3 after CTL administration, mice received either CID (50 μg AP20187; (black diamonds, n=6) or carrier only (black squares, n=5) and on day 6 the presence of human CD3+/GFP+ T cells in the tumors was analyzed. Human CD3+ T cells isolated from the tumors of a control group of mice that received only nontransduced CTLs (15×10^6 CTLs; n=4) were used as a negative control for the analysis of CD3+/GFP+ T cells within the tumors.

iCasp9-positive MSCs = assay: In vivo killing of iCasp9-transduced MSCs in SCID mice (luminescence, qPCR)
Experimental: All mouse experiments were performed in accordance with the Baylor College of Medicine animal husbandry guidelines. To assess the persistence of modified MSCs in vivo, a SCID mouse model was used in conjunction with an in vivo imaging system. MSCs were transduced with retroviruses coding for the enhanced green fluorescent protein-firefly luciferase (eGFP-FFLuc) gene alone or together with the iCasp9-ΔCD19 gene. Cells were sorted for eGFP positivity by fluorescence activated cell sorting using a MoFlo flow cytometer (Beckman Coulter, Fullerton, Calif.). Doubly transduced cells were also stained with PE-conjugated anti-CD19 and sorted for PE-positivity. SCID mice (8-10 weeks old) were injected subcutaneously with 5×10^5 MSCs with and without iCasp9-ΔCD19 in opposite flanks. […] For in vivo imaging of MSCs expressing eGFP-FFLuc, mice were injected intraperitoneally with D-luciferin (150 mg/kg) and analyzed using the Xenogen-IVIS Imaging System. Total luminescence (a measurement proportional to the total labeled MSCs deposited) at each time point was calculated by automatically defining regions-of-interest (ROIs) over the MSC implantation sites. These ROIs included all areas with luminescence signals at least 5% above background. Total photon counts were integrated for each ROI and an average value calculated. […]

MSCs = assay: CID-induced apoptosis of iCasp9-ΔCD19 transduced undifferentiated MSCs
[1] = test system: EBV-specific and CMV-specific T cells; assay: Pentamer analysis of virus-specific T cells after dimerizer; assay type: cell-based, human; settings: 10 nM after 4 days reactivation with allogeneic PBMC

Q: With `CC[C@H](C(=O)N1CCCC[C@H]1C(=O)O[C@H](CCc1ccc(OC)c(OC)c1)c1cccc(OCC(=O)NCC(CNC(=O)COc2cccc([C@@H](CCc3ccc(OC)c(OC)c3)OC(=O)[C@@H]3CCCCN3C(=O)[C@@H](CC)c3cc(OC)c(OC)c(OC)c3)c2)CN(C)C)c1)c1cc(OC)c(OC)c(OC)c1` [AP20187] as the compound, how does the “reduction in the number of human CD3+/GFP+ T cells in tumors” value (human CD3+/GFP+ T cells) read?
A: > 99%

Q: And the “surviving iCasp9-positive cells, of the original population” value (iCasp9-positive MSCs; after one week)?
A: 0.7%

Q: And the “killing of iCasp9-positive cells” value (iCasp9-positive MSCs; two injections of 50 μg 24 hours apart, qPCR)?
A: > 99%

Q: What about the apoptosis index (MSCs; iCasp9-negative MSCs, 50 nM, 24 hrs, listed as CID) of the same compound?
A: 20±7% and 19%

Q: And the apoptotic death (MSCs; iCasp9-positive MSCs, 50 nM, 24 hrs)?
A: 93±1%

Q: And the apoptotic cells (MSCs; magnetically immunoselected iCasp9-CD19-positive MSCs)?
A: More than 95%

Q: What about the annexin positive cells (MSCs; non-transduced control MSC (Control/CID), 50 nM) of the same compound?
A: 15%

Q: And the “effect on virus-specific T cells (HLA pentamers, EBV and CMV)” value [1]?
A: spares (and thereby enriches) viral reactive subpopulations
